Reference: patent US5849736A, “Isoxazoline and isoxazole fibrinogen receptor antagonists” (The DuPont Merck Pharmaceutical Company, priority 1995, dated 1998)
pIC50: −log10 of the molar value. Structures can show the parent of a compound that is named as a salt.

The compounds below were run on platelet aggregation in human platelet rich plasma (PRP) (assay: Platelet Aggregation Assay (platelet rich plasma, with or without esterase pretreatment)). Details: Platelet, preincubated with 100 IU/mL porcine liver esterase 2 hours at 37° C., 100 μM ADP, read-out: Platelet Aggregation Assay IC50 (with esterase).
Type: cell-based
How it was run: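 Human citrated PRP from drug-free donors, PPP as 100% transmittance blank; compounds added at various concentrations before agonist (ADP, collagen, arachidonate, epinephrine or thrombin), aggregation followed by light transmittance. Ester prodrugs pretreated (10^-3 M F.C.) with 100 IU/mL porcine liver esterase, 2 h 37 °C; 8 min 37 °C preincubation, then 100 μM ADP, 5 min; % inhibition vs control, IC50.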

Structure (SMILES) | pIC50
COC(=O)C(CNC(=O)CC1CC(c2ccc(C(=N)N)cc2)=NO1)NC(=O)NCc1ccccc1 (stereo not drawn) [Example 520] | > 5.00
CCCCOC(=O)N[C@@H](CNC(=O)CC1CC(c2ccc(NC(=N)N)cc2)=NO1)C(=O)OC (stereo partly drawn) [Example 602, Methyl N^2-n-butyloxycarbonyl-N^3-[3-(4-guanidinophenyl)isoxazolin-5-(R,S)-ylacetyl]-(S)-2,3-diaminopropionate, trifluoroacetic acid salt] | > 5.00
N=C(N)NCCCC1=NOC(CC(=O)NCC(NC(=O)OCc2ccccc2)C(=O)O)C1 (stereo not drawn) [Example 1694] | > 5.00
N=C(N)c1ccc(C2=NOC(CC(=O)NCC(NS(=O)(=O)c3ccc(S(=O)(=O)c4ccccc4)s3)C(=O)O)C2)cc1 (stereo not drawn) [Example 2119] | > 5.00
CCCc1ccc(S(=O)(=O)NC(CNC(=O)CC2CC(c3ccc(C(=N)N)cc3)=NO2)C(=O)OC)cc1 (stereo not drawn) [Example 489] | > 5.00
COC(=O)C(CNC(=O)CC1CC(c2ccc(C(=N)NCc3ccccc3OC)cc2)=NO1)NS(=O)(=O)c1ccccc1C (stereo not drawn) [Example 2111] | > 5.00
N=C(N)c1ccc(C2=NOC(CC(=O)NC[C@H](N)C(=O)O)C2)cc1 (stereo partly drawn) [Example 275, N^3-[3-(4-amidinophenyl)isoxazolin-5(R,S)-ylacetyl]-L-2,3-diaminopropionic acid TFA salt] | > 5.00
COC(=O)C[C@@H](CCc1ccccc1)NC(=O)CC1CC(c2ccc(C(=N)N)cc2)=NO1 (stereo partly drawn) [Example 120a, Methyl 3(R)-{5(R,S)-N-[3-(4-amidinophenyl)isoxazolin-5-ylacetyl]amino}-3-phenethylpropanoate] | > 5.00
N=C(N)NCCCCC1=NOC(C(=O)NCC(NC(=O)OCc2ccccc2)C(=O)O)C1 (stereo not drawn) [Example 2406] | > 5.00
COC(=O)C(CNC(=O)CC1CC(c2ccc(C(=N)N)cc2)=NO1)NC(=O)Nc1cccc2ccccc12 (stereo not drawn) [Example 519] | > 5.00
CCc1ccc(C(=O)NC(CNC(=O)CC2CC(c3ccc(C(=N)N)cc3)=NO2)C(=O)OC)cc1 (stereo not drawn) [Example 522] | > 5.00
COC(=O)CC(NC(=O)CC1CC(c2ccc(C(=N)N)cc2)=NO1)C(=O)NC12CC3CC(CC(C3)C1)C2 (stereo not drawn) [Example 466] | > 5.00
COC(=O)CC(NC(=O)CC1CC(c2ccc(C(N)=NC(=O)OC(C)(C)C)cc2)=NO1)C(=O)N1CCN(Cc2ccccc2)CC1 (stereo not drawn) [Example 453] | > 5.00
N=C(N)NCCCC1=NOC(CCC(=O)NCC(NC(=O)OCc2ccccc2)C(=O)O)C1 (stereo not drawn) [Example 2403] | > 5.00
COC(=O)C(CNC(=O)CC1CC(c2ccc(C(=N)N)cc2)=NO1)NS(=O)(=O)c1c(C)c(C)cc(C)c1C (stereo not drawn) [Example 485] | > 5.00
N=C(N)c1ccc(C2=NOC(CC(=O)NC[C@H](NC(=O)OCc3ccccc3)C(=O)O)C2)cc1 (stereo partly drawn) [Example 276, N^2 -Cbz-N^3-[3-(4-amidinophenyl)isoxazolin-5(R, S) -ylacetyl]-L-2,3-diaminopropionic acid TFA salt] | > 5.00
CCOC(=O)C[C@@H](CC(C)C)NC(=O)CC1CC(c2ccc(C(=N)N)cc2)=NO1 (stereo partly drawn) [Example 348, Ethyl 3(R)-{5(R,S)-N-[3-(4-amidinophenyl)isoxazolin-5-ylacetyl]amino}-5-methylhexanoate . trifluoroacetic acid salt] | > 5.00

Structure (SMILES) | pIC50
CCCCOC(=O)N[C@@H](CNC(=O)CC1CC(c2ccc(C(=N)N)nc2)=NO1)C(=O)OC (stereo partly drawn) [Example 515, Methyl N^2-(n-butyloxycarbonyl)-N^3-[3-(2-amidinopyrid-5-yl)isoxazolin-5-ylacetyl]-S-2,3-diaminopropionate hydrochloric acid salt] | > 5.00
COC(=O)C(CNC(=O)CC1CC(c2ccc(C(=N)N)cc2)=NO1)NS(=O)(=O)c1c(C)cc(C)cc1C (stereo not drawn) [Example 478] | > 5.00
COC(=O)[C@H](CNC(=O)CC1CC(c2ccc(C(=N)N)cn2)=NO1)NS(=O)(=O)c1cccc(C)c1 (stereo partly drawn) [Example 514, Methyl N^2-(m-toluenesulfonyl)-N^3-3-(3-amidinopyrid-6-yl)isoxazolin-5-ylacetyl]-S-2,3-diaminopropionate hydrochloric acid salt] | > 5.00
COC(=O)C(CNC(=O)CC1CC(c2ccc(C(=N)N)cc2)=NO1)NS(=O)(=O)CCc1ccccc1 (stereo not drawn) [Example 491] | > 5.00
COC(=O)C(CNC(=O)CC1CC(c2ccc(C(=N)N)cc2)=NO1)NS(=O)(=O)c1cccc(C(F)(F)F)c1 (stereo not drawn) [Example 475] | > 5.00
CCCCNC(=N)c1ccc(C2=NOC(CC(=O)NCC(NS(=O)(=O)c3ccccc3C)C(=O)OC)C2)cc1 (stereo not drawn) [Example 2113] | > 5.00
COC(=O)C(CNC(=O)CC1CC(c2ccc(C(=N)N)cc2)=NO1)NC(=O)OCc1ccccc1Cl (stereo not drawn) [Example 525] | > 5.00
CCCCOC(=O)N[C@@H](CNC(=O)C[C@H]1CC(c2ccc(C(=N)N)cc2)=NO1)C(=O)OC [Example 314B, Methyl-N^2-n-butyloxycarbonyl-N^3-[3-(4-amidinophenyl)isoxazolin-5(R)-ylacetyl]-(S)-2,3-diaminopropionate TFA salt] | > 5.00
CCCCCCOC(=O)NC(CNC(=O)CC1CC(c2ccc(C(=N)N)cc2)=NO1)C(=O)OC (stereo not drawn) [Example 529] | > 5.00
CCOC(=O)CC1CCCCCN1C(=O)CC1CC(c2ccc(C(=N)N)cc2)=NO1 (stereo not drawn) [Example 415] | > 5.00
COC(=O)C(CNC(=O)CC1CC(c2ccc(C(=N)N)cc2)=NO1)NS(=O)(=O)c1ccc(Br)s1 (stereo not drawn) [Example 549] | > 5.00
CCCCOC(=O)N[C@@H](CNC(=O)CC1=NOC(c2ccc(C(=N)N)cc2)C1)C(=O)OC (stereo partly drawn) [Example 829, Methyl N^2-n-butyloxycarbonyl-N^3-[5-(4-amidinophenyl)isoxazolin-3-ylacetyl]-(2S)-2,3-diaminopropionate] | > 5.00
COC(=O)C(CNC(=O)CC1CC(c2ccc(C(=N)N)cc2)=NO1)NC(=O)OCCC1CCCC1 (stereo not drawn) [Example 535] | > 5.00
CCCCOC(=O)N[C@@H](CNC(=O)C[C@@H]1CC(c2ccc(C(=N)N)cc2)=NO1)C(=O)OC [Example 314A, Methyl N^2-n-butyloxycarbonyl-N^3-[3-(4-amidinophenyl)isoxazolin-5(S)-ylacetyl]-(S)-2,3-diaminopropionate TFA salt] | > 5.00
COC(=O)CC(C#C[Si](C)(C)C)NC(=O)CC1CC(c2ccc(C(=N)N)cc2)=NO1 (stereo not drawn) [Example 457] | > 5.00
COC(=O)CC(NC(=O)CC1CC(c2ccc(C(=N)N)cc2)=NO1)C(=O)NCCc1ccccc1 (stereo not drawn) [Example 452] | > 5.00
CCNC(=N)c1ccc(C2=NOC(CC(=O)NCC(NS(=O)(=O)c3ccccc3C)C(=O)O)C2)cc1 (stereo not drawn) [Example 2116] | > 5.00

Same assay, conditions: Platelet, without esterase, read-out: Platelet Aggregation Assay IC50 (without esterase)

Structure (SMILES) | pIC50
N=C(N)c1ccc(C2=NOC(CC(=O)N3CCCCCC3CC(=O)O)C2)cc1 (racemic) [Example 377, 2-(R,S)-2-Carboxymethyl-1-{5-(R,S)-N-[3-(4-amidinophenyl)isoxazolin-5-ylacetyl]}azepine] | > 5.00
N=C(N)c1ccc(C2=NOC(CC(=O)NCC(NC(=O)OCCCC(F)(F)F)C(=O)O)C2)cc1 (stereo not drawn) [Example 538] | > 5.00
O=C(O)CCCN1C(=O)CC2(CC(CCC3CCNCC3)=NO2)C1=O (stereo not drawn) [Example 190] | 4.00 to 4.30
CCCCCCOC(=O)NC(CNC(=O)CC1CC(c2ccc(C(=N)N)cc2)=NO1)C(=O)O (stereo not drawn) [Example 530] | > 5.00
CCCCS(=O)(=O)NC(CC1CC(c2ccc(OCC3CCNCC3)cc2)=NO1)C(=O)O (single isomer, unassigned) [9 (isomer A)] | > 5.00
CCCCOC(=O)NC(CNC(=O)CC1CC(CCCC2CCNCC2)=NO1)C(=O)OC (stereo not drawn) [Example 616] | > 5.00
N=C(N)c1ccc(C2=NOC(CC(=O)NC(CC(=O)O)c3ccccc3)C2)cc1 (racemic) [Example 43, N-[3-(4-Amidinophenyl)isoxazolin-5(R,S)-ylacetyl]-(R,S)-3-amino-3-phenylpropanoic Acid] | > 5.00
O=C(N[C@H](C(=O)O)C1CC(c2ccc(OCCC3CCNCC3)cc2)=NO1)OCc1ccccc1 (single isomer, unassigned) [4 (isomer A)] | 4.30 to 5.00
COC(=O)CC1C(=O)NCCN1C(=O)CC1CC(c2ccc(C(=N)N)cc2)=NO1 (racemic) [Example 400, 3-(R,S)-(Methoxy-2-oxoethyl)-4-{5-(R,S)-N-[3-(4-amidinophenyl)isoxazolin-5-ylacetyl]}piperazin-2-one] | > 5.00
O=C(O)CCC1CC(c2ccc(OCC3CCNCC3)cc2)=NO1 (racemic) [Example 6, 3-(3-[4-(Piperidin-4-ylmethoxy)phenyl]-(5R,S)-isoxazolin-5-yl)propionic Acid, Trifluoroacetic Acid Salt] | > 5.00

Same assay, conditions: preincubated with 100 IU/mL porcine liver esterase 2 hours at 37° C., 100 μM ADP, read-out: Platelet Aggregation Assay IC50 (with esterase)

Structure (SMILES) | pIC50
COC(=O)[C@H](CNC(=O)CC1CC(c2ccc(C(=N)N)cc2)=NO1)NS(=O)(=O)c1cccc(C)c1 (stereo partly drawn) [Example 473B, Methyl N^2-3-methylphenylsulfonyl-N^3-[3-(4-amidinophenyl)-5S-ylacetyl]-S-2,3-diaminopropionate trifluoroacetic acid salt] | > 5.00
COC(=O)C[C@@H](Cc1ccccc1)NC(=O)CC1CC(c2ccc(C(=N)N)cc2)=NO1 (stereo partly drawn) [119A (3R)] | > 5.00
COC(=O)[C@H](CNC(=O)CC1CC(c2ccc(C(=N)N)cc2)=NO1)NS(=O)(=O)Cc1ccccc1 (stereo partly drawn) [328 (2S)] | > 5.00
COC(=O)C[C@H](Cc1ccccc1)NC(=O)CC1CC(c2ccc(C(=N)N)cc2)=NO1 (stereo partly drawn) [119B (3S)] | > 5.00
